According to patent publication US10640495B2, “Heterocycle derivatives having TrkA inhibitory activity” (Shionogi & Co., Ltd., priority 2015, dated 2020):

Target: human TrkA (Homo sapiens (Human), UniProt P04629)
Experiment: Human TrkA inhibition assay (Test Example 2)
Assay type: biochemical
Conditions: Table 155, human TrkA inhibition; read-out: IC50
Method in brief: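 Recombinant TrkA (1 nmol/L) was preincubated 15 min at room temperature with compound in HEPES/MgCl2/DTT buffer, then reacted with FL-peptide 27 (1.5 μmol/L) and ATP (500 μmol/L) for 120 min at 37 °C. After EDTA stop, substrate phosphorylation was read by microfluidic mobility shift. IC50 came from logistic regression over 3-fold dilution series.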

human TrkA, sequence (P04629 440-796): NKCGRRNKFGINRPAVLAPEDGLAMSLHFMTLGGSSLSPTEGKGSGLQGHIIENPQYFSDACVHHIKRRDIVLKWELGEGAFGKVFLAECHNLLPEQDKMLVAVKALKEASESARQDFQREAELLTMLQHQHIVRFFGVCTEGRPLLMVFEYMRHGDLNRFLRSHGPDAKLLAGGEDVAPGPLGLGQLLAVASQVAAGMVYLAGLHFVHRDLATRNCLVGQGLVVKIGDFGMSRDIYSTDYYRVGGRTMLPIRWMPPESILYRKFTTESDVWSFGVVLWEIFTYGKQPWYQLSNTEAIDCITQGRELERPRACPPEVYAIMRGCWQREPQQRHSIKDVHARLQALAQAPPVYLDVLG

IC50	SMILES
< 100 nM	COCCN1C[C@@H](NC(=O)Nc2c(C)c(-c3ccc4c(c3)NC(=O)CO4)nn2-c2ccccc2)[C@H](c2ccnc(F)c2)O1 (racemic) [Compound I-364]
< 100 nM	COCCN1C[C@@H](NC(=O)Nc2c(C)c(-c3ccc4c(c3)N(C)C(=O)CO4)nn2-c2ccccc2)[C@H](c2ccnc(F)c2)O1 (racemic) [Compound I-365]
< 100 nM	COCCN1C[C@@H](NC(=O)Nc2c(C)c(-c3cnc(OC)c(OC)c3)nn2-c2ccccc2)[C@H](c2ccnc(F)c2)O1 (racemic) [Compound I-366]
< 100 nM	COCCN1C[C@@H](NC(=O)Nc2c(C)c(-c3cnc(OC)c(F)c3)nn2-c2ccccc2)[C@H](c2ccnc(F)c2)O1 (racemic) [Compound I-367]
< 100 nM	COCCN1C[C@@H](NC(=O)Nc2c(C)c(-c3cnc(-c4cnn(C)c4)nc3)nn2-c2ccccc2)[C@H](c2ccnc(F)c2)O1 (racemic) [Compound I-368]
< 100 nM	COCCN1C[C@@H](NC(=O)Nc2c(C)c(-c3cnc4c(c3)c(C(=O)OC)nn4C)nn2-c2ccccc2)[C@H](c2ccnc(F)c2)O1 (racemic) [Compound I-369]
< 100 nM	COCCN1C[C@@H](NC(=O)Nc2c(C)c(-c3cnc(N4CCN(C(=O)OCc5ccccc5)CC4)nc3)nn2-c2ccccc2)[C@H](c2cc(F)nc(F)c2)O1 (racemic) [Compound I-370]
< 100 nM	COCCN1C[C@@H](NC(=O)Nc2c(C)c(-c3cnc(N4CCN(C(=O)OCc5ccccc5)CC4)nc3)nn2-c2ccccc2)[C@H](c2ccnc(F)c2)O1 (racemic) [Compound I-371]
< 100 nM	COCCN1C[C@@H](NC(=O)Nc2c(C)c(-c3ccc(N4CCN(C(=O)OC(C)(C)C)CC4)nc3)nn2-c2ccccc2)[C@H](c2ccnc(F)c2)O1 (racemic) [Compound I-372]
< 100 nM	COCCN1C[C@@H](NC(=O)Nc2c(C)c(-c3cnc(N4CC5(COC5)C4)nc3)nn2-c2ccccc2)[C@H](c2ccnc(F)c2)O1 (racemic) [Compound I-373]
< 100 nM	COCCN1C[C@@H](NC(=O)Nc2c(C)c(-c3ccc(N4CCNCC4)nc3)nn2-c2ccccc2)[C@H](c2ccnc(F)c2)O1 (racemic) [Compound I-374]
< 100 nM	COCCN1C[C@@H](NC(=O)Nc2c(C)c(-c3ccc(N4CCN(CC#N)CC4)nc3)nn2-c2ccccc2)[C@H](c2ccnc(F)c2)O1 (racemic) [Compound I-375]
< 100 nM	COCCN1C[C@@H](NC(=O)Nc2c(C)c(-c3cnc4c(c3)c(C(=O)NC3CCN(C)CC3)nn4C)nn2-c2ccccc2)[C@H](c2ccnc(F)c2)O1 (racemic) [Compound I-376]
< 100 nM	COCCN1C[C@@H](NC(=O)Nc2c(C)c(-c3cnc4c(c3)c(C(=O)N3CCN(C)CC3)nn4C)nn2-c2ccccc2)[C@H](c2ccnc(F)c2)O1 (racemic) [Compound I-377]
< 100 nM	COCCN1C[C@@H](NC(=O)Nc2c(C)c(-c3cnc(N4CCCC4)nc3)nn2-c2ccccc2)[C@H](c2ccnc(F)c2)O1 (racemic) [Compound I-378]
< 100 nM	COCCN1C[C@@H](NC(=O)Nc2c(C)c(-c3cnc(N4CCN(C)CC4)nc3)nn2-c2ccccc2)[C@H](c2ccnc(F)c2)O1 (racemic) [Compound I-379]
< 100 nM	COCCN1C[C@@H](NC(=O)Nc2c(C)c(-c3cnc(N4CCN(C)CC4)nc3)nn2-c2ccccc2)[C@H](c2cc(F)nc(F)c2)O1 (racemic) [Compound I-380]
< 100 nM	COCCN1C[C@@H](NC(=O)Nc2c(C)c(-c3cnc(OC4CCN(C)CC4)nc3)nn2-c2ccccc2)[C@H](c2ccnc(F)c2)O1 (racemic) [Compound I-381]
< 100 nM	COCCN1C[C@@H](NC(=O)Nc2c(C)c(-c3ccc4c(c3)NCCO4)nn2-c2ccccc2)[C@H](c2ccnc(F)c2)O1 (racemic) [Compound I-382]
< 100 nM	COCCN1C[C@@H](NC(=O)Nc2c(C)c(-c3cc(F)c4c(c3)NCCO4)nn2-c2ccccc2)[C@H](c2ccnc(F)c2)O1 (racemic) [Compound I-383]
< 100 nM	CNC(=O)c1nn(-c2ccccc2)c(NC(=O)N[C@@H]2CN(CCOC)O[C@H]2c2ccnc(F)c2)c1C (racemic) [Compound I-384]

IC50	SMILES
< 100 nM	COCCN1C[C@@H](NC(=O)Nc2c(C)c(C(=O)NCC(C)(C)O)nn2-c2ccccc2)[C@H](c2ccnc(F)c2)O1 (racemic) [Compound I-385]
> 1000 nM	CNC(=O)c1cc(NC(=O)N[C@@H]2CN(CCOC)O[C@H]2c2ccnc(F)c2)n(-c2ccccc2)n1 (racemic) [Compound I-388]
< 100 nM	COCCN1C[C@@H](NC(=O)Nc2c(C)c(-c3cc(C(=O)NC(C)(C)C)c(=O)n(C)c3)nn2-c2ccccc2)[C@H](c2ccnc(F)c2)O1 (racemic) [Compound I-389]
< 100 nM	COCCN1C[C@@H](NC(=O)Nc2c(C)c(-c3cc(C(=O)NC(C)(C)C(F)(F)F)c(=O)n(C)c3)nn2-c2ccccc2)[C@H](c2ccnc(F)c2)O1 (racemic) [Compound I-390]
< 100 nM	COCCN1C[C@@H](NC(=O)Nc2c(C)c(C3=CC(=O)N(C)C(C)(C)C3)nn2-c2ccccc2)[C@H](c2ccnc(F)c2)O1 (racemic) [Compound I-397]
< 100 nM	COCCN1C[C@@H](NC(=O)Nc2c(C)c(-c3cnc4c(c3)nc(N3CCCC3)n4C)nn2-c2ccccc2)[C@H](c2ccnc(F)c2)O1 (racemic) [Compound I-398]
< 100 nM	COCCN1C[C@@H](NC(=O)Nc2c(C)c(-c3cnc4c(c3)nc(N3CCN(C)CC3)n4C)nn2-c2ccccc2)[C@H](c2ccnc(F)c2)O1 (racemic) [Compound I-399]
< 100 nM	COCCN1C[C@@H](NC(=O)Nc2c(C)c(-c3cnc4c(c3)ncn4CC(=O)N3CCN(C)CC3)nn2-c2ccccc2)[C@H](c2ccnc(F)c2)O1 (racemic) [Compound I-400]
< 100 nM	CNC(=O)Cn1cnc2cc(-c3nn(-c4ccccc4)c(NC(=O)N[C@@H]4CN(CCOC)O[C@H]4c4ccnc(F)c4)c3C)cnc21 (racemic) [Compound I-401]
< 100 nM	COCCN1C[C@@H](NC(=O)Nc2c(C)c(-c3cnc4c(c3)ncn4CC(=O)N(C)C)nn2-c2ccccc2)[C@H](c2ccnc(F)c2)O1 (racemic) [Compound I-402]
< 100 nM	COCCN1C[C@@H](NC(=O)Nc2c(C)c(-c3cnc4c(c3)nc(C(=O)N3CCN(C)CC3)n4C)nn2-c2ccccc2)[C@H](c2ccnc(F)c2)O1 (racemic) [Compound I-403]
< 100 nM	COCCN1C[C@@H](NC(=O)Nc2c(C)c(-c3cnc4c(c3)nc(C(=O)NC3CCN(C)CC3)n4C)nn2-c2ccccc2)[C@H](c2ccnc(F)c2)O1 (racemic) [Compound I-404]
< 100 nM	CCN1C[C@@H](NC(=O)Nc2c(C)c(-c3cnc(OC)nc3)nn2-c2ccccc2)[C@H](c2ccc(F)c(F)c2)O1 (racemic) [Compound I-405]
< 100 nM	COCCN1C[C@@H](NC(=O)Nc2c(C)c(-c3cnc(N4CC5(CCOCC5)C4)nc3)nn2-c2ccccc2)[C@H](c2ccnc(F)c2)O1 (racemic) [Compound I-408]
< 100 nM	COCCN1C[C@@H](NC(=O)Nc2c(C)c(-c3cnc(OCCN(C)C)nc3)nn2-c2ccccc2)[C@H](c2ccnc(F)c2)O1 (racemic) [Compound I-409]
< 100 nM	COCCN1C[C@@H](NC(=O)Nc2c(C)c(-c3cnc4c(c3)c(CN3CCCC3)nn4C)nn2-c2ccccc2)[C@H](c2ccnc(F)c2)O1 (racemic) [Compound I-412]
< 100 nM	COCCN1C[C@@H](NC(=O)Nc2c(C)c(-c3cnc(N4CCNCC4)nc3)nn2-c2ccccc2)[C@H](c2ccnc(F)c2)O1 (racemic) [Compound I-414]
< 100 nM	COCCN1C[C@@H](NC(=O)Nc2c(C)c(-c3cnc(N4CCNCC4)nc3)nn2-c2ccccc2)[C@H](c2cc(F)nc(F)c2)O1 (racemic) [Compound I-415]
< 100 nM	COCCN1C[C@@H](NC(=O)Nc2c(C)c(-c3cnc(N4CCN(CC#N)CC4)nc3)nn2-c2ccccc2)[C@H](c2ccnc(F)c2)O1 (racemic) [Compound I-416]
< 100 nM	COCCN1C[C@@H](NC(=O)Nc2c(C)c(-c3cnc(OC4CCN(C)CC4)nc3)nn2-c2ccccc2)[C@H](c2cc(F)nc(F)c2)O1 (racemic) [Compound I-418]
< 100 nM	COCCN1C[C@@H](NC(=O)Nc2c(C)c(-c3cnc(N4CCN(CC#N)CC4)nc3)nn2-c2ccccc2)[C@H](c2cc(F)nc(F)c2)O1 (racemic) [Compound I-419]

SMILES	IC50
COCCN1C[C@@H](NC(=O)Nc2c(C)c(-c3ccc(N4C[C@H]5COC[C@@H](C4)N5C(=O)OC(C)(C)C)nc3)nn2-c2ccccc2)[C@H](c2ccnc(F)c2)O1 (racemic) [Compound I-393]	< 100 nM
COCCN1C[C@@H](NC(=O)Nc2c(C)c(-c3ccc(N4C[C@H]5COC[C@@H](C4)N5)nc3)nn2-c2ccccc2)[C@H](c2ccnc(F)c2)O1 (racemic) [Compound I-394]	< 100 nM
COCCN1C[C@@H](NC(=O)Nc2c(C)c(-c3ccc(N4C[C@H]5COC[C@@H](C4)N5C)nc3)nn2-c2ccccc2)[C@H](c2ccnc(F)c2)O1 (racemic) [Compound I-396]	< 100 nM
COCCN1C[C@@H](NC(=O)Nc2c(C)c(-c3cnc(N4C[C@H]5COC[C@@H](C4)N5)nc3)nn2-c2ccccc2)[C@H](c2ccnc(F)c2)O1 (racemic) [Compound I-421]	< 100 nM

Same assay, conditions: human TrkA 1 nmol/L, ATP 500 μmol/L, 120 min at 37° C.; read-out: IC50 values (TrkA phosphorylation inhibition)

IC50	SMILES
6.8 nM	COCCN1C[C@@H](NC(=O)Nc2c(C)c(-c3ccc(N4CCN(C)CC4)nc3)nn2-c2ccccc2)[C@H](c2ccnc(F)c2)O1 (racemic) [Compound I-392]
2.2 nM	CCN1C[C@@H](NC(=O)Nc2c(C)c(-c3cnc(OC)c(C(=O)NC)c3)nn2-c2ccccc2)[C@H](c2ccc(F)c(F)c2)O1 (racemic) [Compound I-406]
2.5 nM	COCCN1C[C@@H](NC(=O)Nc2c(C)c(-c3cnc4c(cnn4C4CCN(C)CC4)c3)nn2-c2ccccc2)[C@H](c2ccnc(F)c2)O1 (racemic) [Compound I-413]
